Experimental data published in ChEMBL document CHEMBL4804281, “STK4 inhibitors for treatment of hematologic malignancies” (2020).
Activity calls are given as the source filed them. The rule behind the calls is not given here.

Experiments:
MM1.S [1] = assay: Downregulation of phosphorylated-MOB1 protein level in human MM1.S cells at 1 to 10 uM measured after 6 hrs by Western blot analysis; format: functional, cell-based; settings: dose 1-10 µM
[2] = target: T1, Serine/threonine-protein kinase 3 (Homo sapiens) (UniProt Q13188); assay: Inhibition of STK3 (unknown origin) using fluorescein-labelled Ser/Thr-07 peptide as substrate incubated for 1 hr in presence of ATP at Km concentration by Z-LYTE assay
T1 sequence (whole entry): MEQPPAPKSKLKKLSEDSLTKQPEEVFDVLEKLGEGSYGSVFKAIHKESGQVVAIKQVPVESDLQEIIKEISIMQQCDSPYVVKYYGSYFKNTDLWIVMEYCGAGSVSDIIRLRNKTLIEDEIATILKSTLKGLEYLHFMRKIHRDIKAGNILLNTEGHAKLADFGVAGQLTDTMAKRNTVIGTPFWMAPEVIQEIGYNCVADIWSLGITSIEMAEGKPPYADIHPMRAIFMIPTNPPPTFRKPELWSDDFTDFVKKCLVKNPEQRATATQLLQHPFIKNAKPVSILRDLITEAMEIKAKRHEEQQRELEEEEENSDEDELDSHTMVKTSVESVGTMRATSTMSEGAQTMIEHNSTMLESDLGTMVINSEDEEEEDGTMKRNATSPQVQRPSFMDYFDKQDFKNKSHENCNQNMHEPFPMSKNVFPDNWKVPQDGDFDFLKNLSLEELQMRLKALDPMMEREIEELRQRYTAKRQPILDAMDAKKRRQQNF

[3] = target: Cyclin-dependent kinase 19 (Homo sapiens) (UniProt Q9BWU1); assay: Inhibition of CDK11 in human NCI-H929 cells at 10 uM by mass spectroscopic analysis relative to control; format: cell-based
Cyclin-dependent kinase 19 (Homo sapiens), sequence (Q9BWU1 whole entry): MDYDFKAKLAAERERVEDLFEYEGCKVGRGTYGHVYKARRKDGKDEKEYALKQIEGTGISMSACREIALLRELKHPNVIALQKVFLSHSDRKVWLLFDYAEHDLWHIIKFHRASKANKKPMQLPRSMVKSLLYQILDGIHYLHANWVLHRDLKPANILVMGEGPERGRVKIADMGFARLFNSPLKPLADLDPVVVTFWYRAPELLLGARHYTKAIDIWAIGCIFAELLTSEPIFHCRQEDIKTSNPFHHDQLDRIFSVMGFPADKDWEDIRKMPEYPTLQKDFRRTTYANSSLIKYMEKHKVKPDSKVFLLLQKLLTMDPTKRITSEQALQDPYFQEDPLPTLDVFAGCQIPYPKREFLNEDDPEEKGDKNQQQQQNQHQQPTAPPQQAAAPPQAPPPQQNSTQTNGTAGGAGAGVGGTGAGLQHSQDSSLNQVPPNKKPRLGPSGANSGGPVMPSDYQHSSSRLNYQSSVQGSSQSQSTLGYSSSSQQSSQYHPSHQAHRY

[4] = target: Serine/threonine-protein kinase MARK1 (Homo sapiens) (UniProt Q9P0L2); assay: Inhibition of MARK1 in human NCI-H929 cells at 10 uM by mass spectroscopic analysis relative to control; format: cell-based
Serine/threonine-protein kinase MARK1 (Homo sapiens), sequence (Q9P0L2 whole entry, looked up): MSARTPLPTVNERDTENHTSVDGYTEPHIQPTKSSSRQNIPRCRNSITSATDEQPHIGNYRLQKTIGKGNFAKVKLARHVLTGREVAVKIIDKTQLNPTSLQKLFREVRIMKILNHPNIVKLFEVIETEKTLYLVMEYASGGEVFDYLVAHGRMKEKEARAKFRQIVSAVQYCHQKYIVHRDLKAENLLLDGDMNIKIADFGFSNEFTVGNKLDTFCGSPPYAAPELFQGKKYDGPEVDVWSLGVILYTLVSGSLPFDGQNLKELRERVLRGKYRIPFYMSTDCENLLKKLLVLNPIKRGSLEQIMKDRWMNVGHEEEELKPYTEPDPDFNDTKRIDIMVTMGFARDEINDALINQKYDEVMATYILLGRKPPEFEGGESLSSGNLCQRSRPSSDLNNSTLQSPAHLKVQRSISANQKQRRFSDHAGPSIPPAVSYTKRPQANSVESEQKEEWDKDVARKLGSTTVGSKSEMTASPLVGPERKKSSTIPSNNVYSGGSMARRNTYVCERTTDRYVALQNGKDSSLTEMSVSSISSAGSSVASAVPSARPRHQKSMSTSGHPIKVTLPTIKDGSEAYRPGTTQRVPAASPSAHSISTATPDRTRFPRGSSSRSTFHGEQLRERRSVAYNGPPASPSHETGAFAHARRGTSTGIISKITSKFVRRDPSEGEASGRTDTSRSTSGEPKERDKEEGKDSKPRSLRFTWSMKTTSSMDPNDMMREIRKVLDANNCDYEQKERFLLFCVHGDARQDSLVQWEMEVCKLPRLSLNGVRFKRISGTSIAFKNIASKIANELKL

MM1.S [5] = assay: Upregulation of YAP1 protein level in human MM1.S cells at 1 uM measured after 16 hrs by Western blot analysis; format: functional, cell-based
[6] = target: T2, NUAK family SNF1-like kinase 1 (Homo sapiens) (UniProt O60285); assay: Inhibition of NuaK1 in human NCI-H929 cells at 10 uM by mass spectroscopic analysis relative to control; format: cell-based
T2 sequence (whole entry): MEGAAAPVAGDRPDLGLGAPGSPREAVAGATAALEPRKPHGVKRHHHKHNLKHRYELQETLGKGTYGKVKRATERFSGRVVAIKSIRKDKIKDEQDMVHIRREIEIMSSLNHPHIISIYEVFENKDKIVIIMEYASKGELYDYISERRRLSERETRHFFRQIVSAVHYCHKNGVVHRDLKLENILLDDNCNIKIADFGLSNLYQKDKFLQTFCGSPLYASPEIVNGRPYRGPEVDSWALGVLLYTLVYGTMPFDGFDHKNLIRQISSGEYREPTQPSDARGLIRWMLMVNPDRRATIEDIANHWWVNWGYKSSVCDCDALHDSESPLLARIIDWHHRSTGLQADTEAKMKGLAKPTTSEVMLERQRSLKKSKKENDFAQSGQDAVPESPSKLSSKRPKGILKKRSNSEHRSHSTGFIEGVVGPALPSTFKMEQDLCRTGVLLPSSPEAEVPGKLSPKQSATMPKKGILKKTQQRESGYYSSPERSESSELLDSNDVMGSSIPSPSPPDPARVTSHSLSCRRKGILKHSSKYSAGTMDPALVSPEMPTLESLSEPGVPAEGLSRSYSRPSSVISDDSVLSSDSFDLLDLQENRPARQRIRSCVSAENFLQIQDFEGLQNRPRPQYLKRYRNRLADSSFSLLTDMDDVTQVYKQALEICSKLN

[7] = target: RAC-gamma serine/threonine-protein kinase (Homo sapiens) (UniProt Q9Y243); assay: Inhibition of AKT3 in human NCI-H929 cells at 10 uM by mass spectroscopic analysis relative to control; format: cell-based
RAC-gamma serine/threonine-protein kinase (Homo sapiens), sequence (Q9Y243 whole entry): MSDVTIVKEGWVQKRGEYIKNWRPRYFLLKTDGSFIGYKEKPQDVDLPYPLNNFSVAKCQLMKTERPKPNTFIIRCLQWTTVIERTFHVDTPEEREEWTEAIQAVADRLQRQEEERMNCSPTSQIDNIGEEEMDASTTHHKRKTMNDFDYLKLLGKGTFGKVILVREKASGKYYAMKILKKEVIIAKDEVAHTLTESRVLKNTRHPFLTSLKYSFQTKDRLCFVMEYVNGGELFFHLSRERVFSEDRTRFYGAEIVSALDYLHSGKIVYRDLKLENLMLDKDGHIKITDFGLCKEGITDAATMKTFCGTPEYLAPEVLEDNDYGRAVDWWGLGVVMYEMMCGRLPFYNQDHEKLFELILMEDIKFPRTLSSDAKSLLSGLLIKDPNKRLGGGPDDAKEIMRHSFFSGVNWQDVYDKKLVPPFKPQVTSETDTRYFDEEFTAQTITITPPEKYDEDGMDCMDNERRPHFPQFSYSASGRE

[8] = target: Dual specificity mitogen-activated protein kinase kinase 2 (Homo sapiens) (UniProt P36507); assay: Inhibition of MAP2K2 in human NCI-H929 cells at 10 uM by mass spectroscopic analysis relative to control; format: cell-based
Dual specificity mitogen-activated protein kinase kinase 2 (Homo sapiens), sequence (P36507 whole entry): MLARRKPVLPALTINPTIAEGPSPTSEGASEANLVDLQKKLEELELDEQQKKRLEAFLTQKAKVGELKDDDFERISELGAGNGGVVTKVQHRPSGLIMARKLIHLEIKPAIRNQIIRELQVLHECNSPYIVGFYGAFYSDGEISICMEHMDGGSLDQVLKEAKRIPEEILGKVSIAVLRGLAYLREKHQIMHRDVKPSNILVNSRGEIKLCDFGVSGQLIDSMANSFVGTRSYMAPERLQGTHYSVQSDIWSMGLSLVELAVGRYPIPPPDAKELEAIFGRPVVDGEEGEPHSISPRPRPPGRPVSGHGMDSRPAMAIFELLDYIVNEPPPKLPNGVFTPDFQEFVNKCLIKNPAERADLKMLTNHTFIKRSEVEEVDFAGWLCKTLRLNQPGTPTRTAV

[9] = target: T3, Tyrosine-protein kinase Mer (Homo sapiens) (UniProt Q12866); assay: Inhibition of MER in human NCI-H929 cells at 10 uM by mass spectroscopic analysis relative to control; format: cell-based
T3 sequence (whole entry): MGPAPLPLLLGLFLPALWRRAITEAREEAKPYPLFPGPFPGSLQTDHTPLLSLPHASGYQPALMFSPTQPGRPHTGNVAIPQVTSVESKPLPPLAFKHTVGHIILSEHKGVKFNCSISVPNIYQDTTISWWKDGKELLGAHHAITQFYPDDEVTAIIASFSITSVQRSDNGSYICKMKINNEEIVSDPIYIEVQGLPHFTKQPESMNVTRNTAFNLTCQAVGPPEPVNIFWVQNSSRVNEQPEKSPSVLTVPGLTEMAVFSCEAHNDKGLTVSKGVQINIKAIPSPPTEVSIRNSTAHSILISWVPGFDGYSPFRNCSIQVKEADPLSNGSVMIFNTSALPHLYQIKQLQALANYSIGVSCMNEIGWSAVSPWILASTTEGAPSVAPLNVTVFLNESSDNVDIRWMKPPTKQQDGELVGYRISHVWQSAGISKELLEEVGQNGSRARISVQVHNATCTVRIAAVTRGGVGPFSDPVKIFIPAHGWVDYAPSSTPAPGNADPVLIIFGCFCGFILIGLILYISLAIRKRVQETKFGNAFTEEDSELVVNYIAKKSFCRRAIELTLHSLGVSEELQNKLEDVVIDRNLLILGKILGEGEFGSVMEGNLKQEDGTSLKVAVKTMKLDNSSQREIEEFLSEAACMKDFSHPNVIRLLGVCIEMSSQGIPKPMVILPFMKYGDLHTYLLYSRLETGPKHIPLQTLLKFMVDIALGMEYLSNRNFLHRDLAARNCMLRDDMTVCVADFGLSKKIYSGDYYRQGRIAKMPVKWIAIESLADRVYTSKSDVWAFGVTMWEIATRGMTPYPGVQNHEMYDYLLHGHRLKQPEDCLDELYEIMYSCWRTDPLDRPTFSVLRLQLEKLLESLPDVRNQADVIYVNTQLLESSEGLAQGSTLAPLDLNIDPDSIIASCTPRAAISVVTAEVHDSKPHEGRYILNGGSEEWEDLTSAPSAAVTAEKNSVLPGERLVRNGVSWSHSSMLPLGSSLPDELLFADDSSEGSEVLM

[10] = target: Microtubule-associated serine/threonine-protein kinase 1 (Homo sapiens) (UniProt Q9Y2H9); assay: Inhibition of MAST1 in human NCI-H929 cells at 10 uM by mass spectroscopic analysis relative to control; format: cell-based
Microtubule-associated serine/threonine-protein kinase 1 (Homo sapiens), sequence (Q9Y2H9 whole entry, looked up): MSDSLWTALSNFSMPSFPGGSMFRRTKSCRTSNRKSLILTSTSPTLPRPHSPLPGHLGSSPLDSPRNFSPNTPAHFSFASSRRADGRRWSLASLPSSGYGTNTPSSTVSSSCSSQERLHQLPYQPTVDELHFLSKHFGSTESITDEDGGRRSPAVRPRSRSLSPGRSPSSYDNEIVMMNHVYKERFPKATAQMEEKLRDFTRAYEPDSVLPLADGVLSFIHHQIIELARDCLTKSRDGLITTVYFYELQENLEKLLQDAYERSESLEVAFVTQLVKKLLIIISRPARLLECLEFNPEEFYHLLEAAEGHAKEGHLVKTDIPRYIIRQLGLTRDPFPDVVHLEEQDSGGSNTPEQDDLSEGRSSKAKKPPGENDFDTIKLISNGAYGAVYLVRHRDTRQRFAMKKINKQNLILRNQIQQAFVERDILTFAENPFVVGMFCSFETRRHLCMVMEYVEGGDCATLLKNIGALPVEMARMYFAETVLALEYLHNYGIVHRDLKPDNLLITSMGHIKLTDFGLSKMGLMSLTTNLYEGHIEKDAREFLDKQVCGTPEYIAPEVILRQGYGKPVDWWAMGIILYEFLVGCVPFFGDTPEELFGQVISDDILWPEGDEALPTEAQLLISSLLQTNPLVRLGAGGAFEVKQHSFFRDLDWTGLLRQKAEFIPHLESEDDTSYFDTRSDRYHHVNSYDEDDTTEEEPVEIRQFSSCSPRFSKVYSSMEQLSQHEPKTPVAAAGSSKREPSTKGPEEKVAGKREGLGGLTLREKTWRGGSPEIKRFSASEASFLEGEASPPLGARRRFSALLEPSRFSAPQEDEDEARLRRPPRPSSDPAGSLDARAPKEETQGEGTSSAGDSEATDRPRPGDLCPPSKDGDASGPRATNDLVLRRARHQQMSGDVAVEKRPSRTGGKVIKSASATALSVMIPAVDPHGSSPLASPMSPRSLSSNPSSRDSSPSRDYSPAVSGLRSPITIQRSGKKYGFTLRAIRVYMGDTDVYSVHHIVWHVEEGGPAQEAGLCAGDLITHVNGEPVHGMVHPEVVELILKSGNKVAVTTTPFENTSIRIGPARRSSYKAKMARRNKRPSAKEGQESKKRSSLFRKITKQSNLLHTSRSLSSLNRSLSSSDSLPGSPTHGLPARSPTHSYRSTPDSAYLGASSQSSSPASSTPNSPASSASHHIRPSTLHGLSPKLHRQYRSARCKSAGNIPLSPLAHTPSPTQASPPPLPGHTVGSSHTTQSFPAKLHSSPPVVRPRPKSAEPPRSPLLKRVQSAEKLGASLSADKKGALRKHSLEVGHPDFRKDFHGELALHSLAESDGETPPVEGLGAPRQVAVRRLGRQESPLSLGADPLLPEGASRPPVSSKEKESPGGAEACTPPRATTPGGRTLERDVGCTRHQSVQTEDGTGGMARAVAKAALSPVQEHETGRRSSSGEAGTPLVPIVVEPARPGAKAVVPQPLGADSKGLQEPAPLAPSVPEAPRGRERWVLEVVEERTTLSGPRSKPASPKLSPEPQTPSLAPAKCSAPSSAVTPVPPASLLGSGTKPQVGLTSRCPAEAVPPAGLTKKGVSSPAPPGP

[11] = target: Cyclin-dependent kinase 18 (Homo sapiens) (UniProt Q07002); assay: Inhibition of PCTAIRE3 in human NCI-H929 cells at 10 uM by mass spectroscopic analysis relative to control; format: cell-based
Cyclin-dependent kinase 18 (Homo sapiens), sequence (Q07002 whole entry): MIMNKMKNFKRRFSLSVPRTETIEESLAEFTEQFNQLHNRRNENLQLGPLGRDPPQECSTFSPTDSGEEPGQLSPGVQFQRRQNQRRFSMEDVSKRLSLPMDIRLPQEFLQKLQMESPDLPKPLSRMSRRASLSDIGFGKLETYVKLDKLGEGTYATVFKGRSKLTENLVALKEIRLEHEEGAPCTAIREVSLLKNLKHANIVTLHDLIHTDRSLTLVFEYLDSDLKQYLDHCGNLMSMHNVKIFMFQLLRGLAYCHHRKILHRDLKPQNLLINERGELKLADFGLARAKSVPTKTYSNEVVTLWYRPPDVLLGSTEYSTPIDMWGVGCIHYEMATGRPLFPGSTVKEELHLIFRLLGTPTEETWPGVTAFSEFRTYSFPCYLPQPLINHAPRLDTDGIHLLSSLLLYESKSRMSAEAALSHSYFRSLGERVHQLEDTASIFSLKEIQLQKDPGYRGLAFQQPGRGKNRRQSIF

[12] = target: Cyclin-dependent kinase 17 (Homo sapiens) (UniProt Q00537); assay: Inhibition of PCTAIRE2 in human NCI-H929 cells at 10 uM by mass spectroscopic analysis relative to control; format: cell-based
Cyclin-dependent kinase 17 (Homo sapiens), sequence (Q00537 whole entry, looked up): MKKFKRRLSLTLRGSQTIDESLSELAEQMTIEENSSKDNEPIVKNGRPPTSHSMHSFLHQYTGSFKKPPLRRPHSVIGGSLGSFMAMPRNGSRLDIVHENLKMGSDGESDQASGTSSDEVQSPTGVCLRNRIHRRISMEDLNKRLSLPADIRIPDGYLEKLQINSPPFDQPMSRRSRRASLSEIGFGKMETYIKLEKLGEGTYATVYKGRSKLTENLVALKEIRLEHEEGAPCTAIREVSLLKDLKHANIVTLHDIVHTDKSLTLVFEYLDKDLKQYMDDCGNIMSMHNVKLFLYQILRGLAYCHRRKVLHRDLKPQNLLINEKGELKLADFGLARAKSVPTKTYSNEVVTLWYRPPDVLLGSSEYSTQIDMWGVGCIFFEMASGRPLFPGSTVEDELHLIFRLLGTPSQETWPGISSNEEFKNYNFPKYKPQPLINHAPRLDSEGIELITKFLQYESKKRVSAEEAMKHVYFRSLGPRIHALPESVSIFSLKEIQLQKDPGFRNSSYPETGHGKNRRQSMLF

SMILES | IC50 [2] [nM] | inhibition [3] [%] | inhibition [4] [%] | inhibition [6] [%] | inhibition [7] [%] | inhibition [8] [%] | inhibition [9] [%] | inhibition [10] [%] | inhibition [11] [%] | inhibition [12] [%] | Activity (MM1.S [1]) | Activity (MM1.S [5])
CN(C1CC1)S(=O)(=O)c1ccc(-c2cnc(N)c(-c3ccc4c(c3)CCNC4=O)c2)c(F)c1 | < 40 | 0 | 0 | 50 | 0 |  |  |  |  |  | Active | Active
COc1cc(NS(=O)(=O)C2CC2)ccc1-c1cnc(N)c(-c2ccc3c(c2)CCNC3=O)c1 |  |  | 0 |  |  | 0 | 0 | 0 | 0 | 0 |  | 
Nc1ncc(-c2ccc(NS(=O)(=O)C3CC3)cc2F)cc1-c1ccc2c(c1)CCNC2=O |  | 0 | 0 |  |  | 0 | 0 | 0 | 0 | 0 |  | 
Nc1ncc(-c2ccc(NS(=O)(=O)C3CC3)cc2OC2CCCCC2)cc1-c1ccc2c(c1)CCNC2=O |  | 0 | 0 | 50 |  | 0 | 0 | 0 | 0 | 0 |  | 

More lines, main results first:

IC50 [2] [nM] | inhibition [3] [%] | inhibition [4] [%] | inhibition [6] [%] | inhibition [7] [%] | inhibition [8] [%] | inhibition [9] [%] | inhibition [10] [%] | inhibition [11] [%] | inhibition [12] [%] | SMILES | Activity (MM1.S [1]) | Activity (MM1.S [5])
40 | 50 | 0 | < 90 | 0 |  |  |  |  |  | Nc1ncc(-c2cccc3ncsc23)cc1-c1ccc2c(c1)CCNC2=O | Active | Active
< 40 |  |  |  | 0 |  |  |  |  |  | Nc1ncc(-c2cccc([N+](=O)[O-])c2F)cc1-c1ccc2c(c1)CCNC2=O | Active | Active
